This is an account of results in patent publication US5871779A, “Treatment of arthropathies with vanadate compounds or analogues thereof” (Mount Sinai Hospital Corporation, priority 1996, dated 1999).

One data set relates to articular cartilage. The data set is described as follows: electron microscopy of articular cartilage of arthritic rats. The data set is classed as in vivo, rat. As for the experimental part:
The synovium of rats from each group was examined by electron microscopy. Rats in each group were selected on Day 5 and Day 18 post arthritis onset to study joint morphology. Scanning and Transmission electron microscopy was performed on selected glutaraldehyde fixed joints. One ankle joint of each arthritic control and BMOV-treated rat was removed, critical point dried, and gold sputter-coated for scanning electron microscopy on Day 18 post arthritis onset to examine the trochlear surfaces. Conventional transmission electron microscopy was also performed on the articular cartilage of the trochlear surfaces of naive, arthritic control, and BMOV-treated animals using a Jeol 1200EX.

In a further data set the test system is IL-1α. The data set is described as follows: synovial IL-1α expression in arthritic rats (Northern blot). The data set is classed as in vivo, rat. The conditions noted are these: BMOV-treated (with NAC) vs control, Day 18. As for the experimental part: Collagenase, stromelysin, and IL-1 expression were quantitated in each group of rats. Selected rats in each group were sacrificed on Day 18 post arthritis onset to measure collagenase, stromelysin, and IL-1 expression via the Northern Blot. Synovial biopsies were pooled and homogenized in the presence of RNASTAT-60 (Tel Test). Total RNA was isolated following the manufacturer's instructions, washed in 70% ethanol, and dissolved in 30 μl RNA loading buffer (Sigma) containing ethidium bromide. The RNA was electrophoresed on a 1% agarose formaldehyde gel and transferred to 0.45 μm nylon filter membrane (Magna NT, MSL). The blot was prehybridised in 50% formamide, 5×SSPE, 5×dendhardts, 1% SDS, 200 μg/ml ssDNA and 50 μg/ml tRNA. The rat collagenase cDNA (bp. 1-550 of locus RATCOL genbank accession M60616), rat stromelysin (ATCC, Rockville, Md.), or rat […] (genbank accession D00403) were labeled by random primed incorporation of ^32 P-dATP (Random Primed Labeling Kit, Boerhinger Manheim). After overnight hybridization at 42° C. overnight, the blot was washed in 1×SSPE at 37° C. and exposed to Kodak X-Ornat AP film for 24 hours at -70° C. with an intensifying screen. The blot was stripped with 50% formamide in 2×SSPE, checked for residual counts and reprobed. The resulting autoradiographs were digitized and analyzed with NIH image software and normalized for RNA loading.

Another data set deals with tumor cell lines. Put plainly: cell death of proliferating tumor cell lines. The data set is classed as cell-based. The procedure: Fos and jun activity are also required for cellular proliferation in many tumor cell lines. Accordingly, the effect of orthovanadate on adherent cells and cell suspensions were examined. MDAY-D2 (a mouse lymphoid cell line grown in suspension) and HTB14 cells (an adherent human primary astrocytoma cell line) were incubated in media containing 0-50 μM orthovanadate for 48 hours. The cells were harvested and the number of viable cells determined.

`Cc1occc(=O)c1[O-].Cc1occc(=O)c1[O-].[O]=[V+2]` [BMOV, bis(methylmaltolato) oxovanadium (IV)]: in the data set with articular cartilage (Day 18), the “trochlear surface by scanning electron micrograph” value is reported as “normal trochlear surface”. In the data set on articular cartilage (rat, in vivo), the “articular cartilage by transmission electron micrograph” value is on record as “indistinguishable from the naive animal”. In addition, in the data set on articular cartilage (scanning and transmission electron micrographs), the “cartilage damage of joints” value was “little cartilage damage and intact cartilage”. Also, the “percent inhibition of IL-1α gene expression” value in the data set on IL-1α is reported as 85%.

`[Na+].[Na+].[Na+].[O]=[V]([O-])([O-])[O-]` [orthovanadate, sodium orthovanadate]: the cell death entry with tumor cell lines (0-50 μM) is recorded as “concentration dependent increase in cell death”. Also, the cell death complete entry in the data set with tumor cell lines (within 3 days of continuous treatment) is reported as “over 98%”.
